Like-named read-outs stand apart in the source and are kept apart here.
Tests used:
PARP in C41 cells [1] = biological target: T1, PARP in C41 cells (Homo sapiens (Human), UniProt P09874); assay: cell-based
PARP in C41 cells [2] = biological target: T1, PARP in C41 cells
[3] = biological target: Recombinant Human Poly(ADP-Ribose) Polymerase (PARP), PARP-1 (Homo sapiens (Human), UniProt P09874); conditions: read-out: PARP-1 (Ki); Table 3; H analogs versus para-F analogs
[4] = Table 3, C41 cells, ratio to comparator EC50

Recombinant Human Poly(ADP-Ribose) Polymerase (PARP), PARP-1, sequence (P09874 whole entry): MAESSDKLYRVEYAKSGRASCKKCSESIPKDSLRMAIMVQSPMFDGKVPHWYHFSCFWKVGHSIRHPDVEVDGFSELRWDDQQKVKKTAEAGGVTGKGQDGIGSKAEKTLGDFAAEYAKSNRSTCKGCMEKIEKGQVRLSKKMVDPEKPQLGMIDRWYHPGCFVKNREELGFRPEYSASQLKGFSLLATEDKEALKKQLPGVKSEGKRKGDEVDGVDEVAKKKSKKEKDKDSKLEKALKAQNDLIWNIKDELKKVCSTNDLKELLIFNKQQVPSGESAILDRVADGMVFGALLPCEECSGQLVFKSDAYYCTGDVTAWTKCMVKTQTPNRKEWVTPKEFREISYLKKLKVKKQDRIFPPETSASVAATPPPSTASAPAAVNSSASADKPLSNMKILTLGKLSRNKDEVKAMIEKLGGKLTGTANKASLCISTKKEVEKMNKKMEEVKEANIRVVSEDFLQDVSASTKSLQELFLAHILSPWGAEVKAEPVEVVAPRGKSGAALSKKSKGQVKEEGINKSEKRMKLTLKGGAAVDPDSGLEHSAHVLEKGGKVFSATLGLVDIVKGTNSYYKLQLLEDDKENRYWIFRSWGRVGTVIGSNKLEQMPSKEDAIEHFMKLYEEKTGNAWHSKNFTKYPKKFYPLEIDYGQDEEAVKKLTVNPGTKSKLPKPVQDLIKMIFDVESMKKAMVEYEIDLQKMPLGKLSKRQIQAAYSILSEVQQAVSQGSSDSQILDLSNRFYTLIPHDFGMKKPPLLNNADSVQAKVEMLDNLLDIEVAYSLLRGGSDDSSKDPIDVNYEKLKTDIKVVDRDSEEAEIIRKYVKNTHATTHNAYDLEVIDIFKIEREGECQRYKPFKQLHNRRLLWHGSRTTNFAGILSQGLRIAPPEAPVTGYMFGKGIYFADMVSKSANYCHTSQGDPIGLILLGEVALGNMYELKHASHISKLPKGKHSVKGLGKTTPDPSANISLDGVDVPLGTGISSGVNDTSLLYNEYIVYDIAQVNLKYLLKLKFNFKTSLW
T1 sequence (P09874 whole entry): as above

Row | SMILES | EC50 (PARP in C41 cells [1]; EC50 generally ranged, range over all assays) [nM] | EC50 (PARP in C41 cells [1]; mean EC50 for all assays carried out, n=270) [nM] | Cell EC50 ratio (PARP in C41 cells [2]; [4]) | Ki [3] [nM] | Cell EC50 ratio (PARP in C41 cells [2])
1 | CCCN1CCC(c2nc3cccc(C(N)=O)c3[nH]2)CC1 | 1 to 13 | 3.2 |  |  | 
2 | O=C(c1cc(Cc2n[nH]c(=O)c3c2CCCC3)ccc1F)N1CCN(c2ccccc2F)CC1 [drawing 39] |  |  | 1.3 | 13 | 
3 | CN1CCCN(C(=O)c2cc(Cc3n[nH]c(=O)c4c3CCCC4)ccc2F)CC1 [drawing 43] |  |  |  | 1.5 | 0.6
4 | O=C(c1cccc(Cc2n[nH]c(=O)c3c2CCCC3)c1)N1CCN(c2ccccc2)CC1 [drawing 34] |  |  | 3.2 | 3 | 
5 | COc1ccc(C(=O)CCC(=O)Nc2cc(Cc3n[nH]c(=O)c4c3CCCC4)ccc2F)cc1 [drawing 15] |  |  | 2.6 | 0.7 | 
6 | NCC(=O)Nc1cc(Cc2n[nH]c(=O)c3c2CCCC3)ccc1F |  |  |  | 2.9 | 5.8
7 | O=C1CCCN1c1cccc(Cc2n[nH]c(=O)c3c2CCCC3)c1 [drawing 16] |  |  | 40.9 | 39.6 | 
8 | O=C(c1cc(Cc2n[nH]c(=O)c3c2CCCC3)ccc1F)N1CCN(c2ccccc2)CC1 [drawing 35] |  |  | 0.9 | 3 | 

Source: patent publication US9283222B2 (priority 2006, dated 2016)
